Test results published in US4250259A, “Microbiological production of ketones from C3 -C6 secondary alcohols” (priority 1979, dated 1981).
Like-named read-outs stand apart in the source and are kept apart here.

Columns and labels:
[1] = tested on: secondary alcohol dehydrogenase (SADH), cell-free soluble extract
Method: (§1) To prepare the cell-free secondary alcohol dehydrogenase (SADH) system, the washed cells were disrupted with a Wave Energy Ultrasonic Oscillator, Model W201 (Wave Energy System, Inc., Newtown, Pa.) and centrifuged at 20,000×g. for 30 minutes. […] The enzyme activity was measured with a fluorescence spectrophotometer (Perkin Elmer, Model MPF 44A) by following the formation of reduced NAD (EX 340 nm, Em 460 nm). The formation of reduced NAD was also followed with an absorption spectrophotometer at 340 nm. The assay system (3 ml.) contained: potassium phosphate buffer pH 7.0; 150 μmol.; NAD 1 μmol.; a given amount of enzyme preparation; and secondary alcohol 10 μmol. The reaction was started by the addition of substrate. One unit of enzyme activity represents the reduction of one μmole NAD per minute. Protein concentrations were determined by the Lowry method (J. Biol. Chem., 193: 255-275 (1951)).
(§2) The experimental procedure for the tests reported in Table VIII were as follows: 1 mg protein of crude extract was added into a 0.5 ml. 0.05 M phosphate buffer (pH 7.0) in a 10-ml. vial. […] The reaction mixture was incubated at 30° C. on a water bath. A 3 μl sample was removed with a syringe at 15 min. of incubation and was assayed with g.l.c. Catalytic activity was also assayed by fluorescence spectrophotometry.

[2] = tested on: secondary alcohol dehydrogenase (SADH), cell-free soluble extract; settings: Growth Substrate CH4
Method: as §1, §2

[3] = tested on: secondary alcohol dehydrogenase (SADH), cell-free soluble extract; settings: Growth Substrate CH4; remark: listed apart in the source
Method: as §1, §2

[4] = tested on: secondary alcohol dehydrogenase (SADH), cell-free soluble extract; settings: Growth Substrate CH4; remark: listed apart in the source
Method: as §1, §2

[5] = tested on: secondary alcohol dehydrogenase (SADH), cell-free soluble extract; settings: Growth Substrate CH4; remark: listed apart in the source
Method: as §1, §2

[6] = tested on: secondary alcohol dehydrogenase (SADH), cell-free soluble extract; settings: Growth Substrate CH4; remark: listed apart in the source
Method: as §1, §2

[7] = tested on: secondary alcohol dehydrogenase (SADH), cell-free soluble extract; settings: Growth Substrate CH4; remark: listed apart in the source
Method: as §1, §2

[8] = tested on: secondary alcohol dehydrogenase (SADH), cell-free soluble extract; settings: Growth Substrate CH3 OH
Method: as §1, §2

[9] = tested on: secondary alcohol dehydrogenase (SADH), cell-free soluble extract; settings: Growth Substrate CH3 OH; remark: listed apart in the source
Method: as §1, §2

[10] = tested on: secondary alcohol dehydrogenase (SADH), cell-free soluble extract; settings: Growth Substrate CH3 OH; remark: listed apart in the source
Method: as §1, §2

[11] = tested on: secondary alcohol dehydrogenase (SADH), cell-free soluble extract; settings: Growth Substrate CH3 OH; remark: listed apart in the source
Method: as §1, §2

[12] = tested on: secondary alcohol dehydrogenase (SADH), cell-free soluble extract; remark: listed apart in the source
Method: as §1, §2

[13] = tested on: secondary alcohol dehydrogenase (SADH), cell-free soluble extract; settings: Growth Substrate CH3 OH; remark: listed apart in the source
Method: as §1, §2

[14] = tested on: secondary alcohol dehydrogenase (SADH), cell-free soluble extract; settings: Growth Substrate CH3 OH; remark: listed apart in the source
Method: as §1, §2

[15] = tested on: secondary alcohol dehydrogenase (SADH), cell-free soluble extract; settings: Growth Substrate CH3 OH; remark: listed apart in the source
Method: as §1, §2

[16] = tested on: secondary alcohol dehydrogenase (SADH), cell-free soluble extract; settings: Growth Substrate CH3 OH; remark: listed apart in the source
Method: as §1, §2

[17] = tested on: secondary alcohol dehydrogenase (SADH), cell-free soluble extract; settings: Growth Substrate CH3 OH; remark: listed apart in the source
Method: as §1, §2

[18] = tested on: cell-free extracts of strain ATCC 21439; experiment: stoichiometry of production of 2-butanone from 2-butanol by cell-free extracts (Table IX); type: biochemical, Pseudomonas sp. ATCC 21,439; settings: 30° C., 1.0 mg protein, 1.0 μmoles NAD, 10 μmoles 2-butanol
Method: The reaction mixtures 3 ml (1.0 mg protein) were incubated at 30°
^(a) Determined gas chromatographically.
^(b) Determined fluorescence spectrophotometrically.
consumption of NAD was corrected.

[19] = tested on: Candida boidinii NRRL Y-2332; settings: cell suspensions
Method: (§3) The cells were harvested during exponential growth by centrifugation at 12,000×g. for 15 min. The cell pellet was washed twice with 50 mM phosphate buffer, pH 7. The final pellet was resuspended in the same buffer. Cell suspensions of yeasts grown on ethanol, methylamine, and methylformate were prepared as described above using 0.4 v/v ethanol, 10 mM methylamine and 10 mM methylformate as the sole source of carbon and energy.
(§4) A 1 ml. aliquot of each washed cell suspension of yeasts grown on various carbon sources was put into 10 ml. vials at 40° C. […] The vials were then incubated at 30° C. on a rotary water bath shaker at 200 rpm. The product of oxidation of secondary alcohols was detected by gas chromatography retention time comparison and co-chromatography with authentic standard.

[20] = tested on: Hansenula anomala NRRL Y-336; settings: cell suspensions
Method: as §3, §4

[21] = tested on: Pichia pastoris NRRL Y-55; settings: cell suspensions
Method: as §3, §4

[22] = tested on: secondary alcohol dehydrogenase, crude extracts; settings: 2-butanol as a substrate; extracts of methanol-grown yeast
Method: (§5) Cell suspensions (2 g. wet weight) of packed cells in 10 ml. of 50 mM sodium phosphate buffer, pH 7.0 at 4° C. were disrupted by sonication with a Megason ultrasonic disintegration. The sonicated cell suspensions were centrifuged for 15 minutes at 30,000×g. The supernantant liquid was termed the crude extracts.
(§6) Secondary alcohol dehydrogenase activity was measured spectrophotometrically at 340 nm with a NAD^+ as an electron acceptor. The reaction mixture, in a total 3.0 ml., contained 50 mM phosphate buffer, pH 8.0, 5 μmoles NAD^+, crude extracts, and substrate. The reactions were started by addition of 100 μl of 0.1 M substrate and the rate of NAD^+ reduction was measured. Protein concentration was determined by the method of Lowry et al.
(§7) Oxidation of secondary alcohols were also estimated spectrophotometrically by measuring the reduction of NAD^+. […] NRRL Y-11,328 Torulopsis sp.

[23] = tested on: secondary alcohol dehydrogenase, crude extracts; settings: 2-butanol as a substrate; extracts of methanol-grown yeast; remark: listed apart in the source
Method: as §5, §6, §7

[24] = tested on: secondary alcohol dehydrogenase, crude extracts; settings: 2-butanol as a substrate; extracts of methanol-grown yeast; remark: listed apart in the source
Method: as §5, §6, §7

[25] = tested on: secondary alcohol dehydrogenase, crude extracts; settings: 2-butanol as a substrate; extracts of methanol-grown yeast; remark: listed apart in the source
Method: as §5, §6, §7

[26] = tested on: secondary alcohol dehydrogenase, crude extracts; settings: 2-butanol as a substrate; extracts of methanol-grown yeast; remark: listed apart in the source
Method: as §5, §6, §7

CCC(C)O (stereo not drawn) [2-Butanol, 2-butanol]
Conversion Rate, 2-butanol to 2-butanone ([1]; Growth Substrate CH3 OH): 2.0 nmoles/min/mg protein
Conversion Rate, 2-butanol to 2-butanone ([1]; Growth Substrate CH4): 1.5 nmoles/min/mg protein
Conversion Rate, 2-butanol to 2-butanone [2]: 0.5 nmoles/min/mg protein
Conversion Rate, 2-butanol to 2-butanone [3]: 2.5 nmoles/min/mg protein
Conversion Rate, 2-butanol to 2-butanone [4]: 1.8 nmoles/min/mg protein
Conversion Rate, 2-butanol to 2-butanone [5]: 1.4 nmoles/min/mg protein
Conversion Rate, 2-butanol to 2-butanone [6]: 0.8 nmoles/min/mg protein
Conversion Rate, 2-butanol to 2-butanone [7]: 2.6 nmoles/min/mg protein
Conversion Rate, 2-butanol to 2-butanone [8]: 3.0 nmoles/min/mg protein
Conversion Rate, 2-butanol to 2-butanone [9]: 5.0 nmoles/min/mg protein
Conversion Rate, 2-butanol to 2-butanone [10]: 2.4 nmoles/min/mg protein
Conversion Rate, 2-butanol to 2-butanone [11]: 15.0 nmoles/min/mg protein
Conversion Rate, 2-butanol to 2-butanone ([12]; Growth Substrate CH3 NH2): 20.0 nmoles/min/mg protein
Conversion Rate, 2-butanol to 2-butanone ([12]; Growth Substrate CH3 OH): 23.2 nmoles/min/mg protein
Conversion Rate, 2-butanol to 2-butanone ([12]; Growth Substrate HCOOCH3): 16.0 nmoles/min/mg protein
Conversion Rate, 2-butanol to 2-butanone [13]: 1.5 nmoles/min/mg protein
Conversion Rate, 2-butanol to 2-butanone [14]: 2.0 nmoles/min/mg protein
Conversion Rate, 2-butanol to 2-butanone [15]: 1.8 nmoles/min/mg protein
Conversion Rate, 2-butanol to 2-butanone [16]: 2.2 nmoles/min/mg protein
Conversion Rate, 2-butanol to 2-butanone [17]: 1.6 nmoles/min/mg protein
2-Butanol Consumed ([18]; Experiment 1: 10 min.): 260 nmol
2-Butanol Consumed ([18]; Experiment 2: 20 min.): 530 nmol
conversion rates, 2-butanol to 2-butanone [19]: 6.0 μ moles/hr/mg. protein
conversion rates, 2-butanol to 2-butanone [20]: 5.5 μ moles/hr/mg. protein
conversion rates, 2-butanol to 2-butanone [21]: 5.8 μ moles/hr/mg. protein
specific activities [22]: 78 nmoles NAD^+ reduced per min. per mg. protein
specific activities [23]: 85 nmoles NAD^+ reduced per min. per mg. protein
specific activities [24]: 105 nmoles NAD^+ reduced per min. per mg. protein
specific activities [25]: 62 nmoles NAD^+ reduced per min. per mg. protein
specific activities [26]: 90 nmoles NAD^+ reduced per min. per mg. protein
